Data from US6800473B1, “Human cathepsin L2 protein, gene encoding said protein and use thereof” (Daiichi Fine Chemical Co., Ltd., priority 1998, dated 2004).
Read-outs that look alike come from different tables or passages of the source. Where a SMILES comes first, the peptide text is derived from it. [ ]: non-standard residue; d: D form. The star is where a group is joined. Sta = CC(C)C[C@H](N)[C@@H](O)CC(=O)O; Isovaleryl = CC(C)CC(=O)*

Target: T1, recombinant cathepsin L2 (Homo sapiens, UniProt O60911)
T1 construct: extra Met before Leu114 (ATG of primer L2-1; own reading of the primer) (N); made in house; host or cells: E. coli BL21 (DE3)
Assay type: biochemical
Conditions: FIG. 3(B)
Experimental: The enzyme activity of purified cathepsin L2 produced in E. coli was measured by using 20 μM Z-Phe-Arg-AMC or Z-Arg-Arg-AMC (Bachem) as the substrate and following the procedure described by Barrett and Kirschke (Barrett, A. J., et al., Methods Enzymol., 80: 535-561, 1981) with minor modifications. Assays were performed at 30° C. in 100 mM sodium acetate buffer (pH 4.5) containing 10 mM dithiothreitol (DTT) and 2 mM EDTA. Substrate hydrolysis was monitored in a Cytofluor 2350 fluorometer (Millipore) at excitation and emission wavelengths of 360 and 460 nm, respectively. For inhibition assays, the reaction mixture containing recombinant cathepsin L2 was preincubated with 20 μM E-64 (Sigma) at 30° C. for 15 min, and the remaining activity for recombinant cathepsin L2 was determined using the fluorogenic substrate Z-Phe-Arg-AMC as described herein previously. As a positive control of enzyme assays, recombinant cathepsin O produced in E. coli (Velasco, G., et al., J. Biol. Chem., 269: 27136-27142, 1994) was used.

[1] = inhibitors of metalloproteinases, serine-proteinases, aspartyl-proteinases, concentration not given

T1 sequence (O60911 114-334): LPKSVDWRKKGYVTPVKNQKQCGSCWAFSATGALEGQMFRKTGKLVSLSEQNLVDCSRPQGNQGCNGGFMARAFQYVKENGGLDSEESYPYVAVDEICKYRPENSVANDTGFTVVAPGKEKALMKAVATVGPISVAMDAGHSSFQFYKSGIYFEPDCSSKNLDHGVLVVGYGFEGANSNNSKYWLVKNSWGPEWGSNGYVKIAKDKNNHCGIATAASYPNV

Compound | proteolytic activity of cathepsin L2 against Z-Phe-Arg-AMC in the presence of inhibitor (preincubated with 20 μM E-64 at 30° C. for 15 min, 100 mM sodium acetate buffer pH 4.5, 10 mM DTT, 2 mM EDTA) | proteolytic activity of cathepsin L2 against Z-Phe-Arg-AMC in the presence of inhibitor [1]
CC(C)C[C@H](NC(=O)[C@H]1O[C@@H]1C(=O)O)C(=O)NCCCCN=C(N)N (relative stereo) [Clone E-64, trans-epoxysuccinyl-L-leucylamido-(4-guanidino)butane] | abolished | 
CC(C)CC(=O)N[C@H](C(=O)N[C@H](C(=O)N[C@@H](CC(C)C)[C@@H](O)CC(=O)N[C@@H](C)C(=O)N[C@@H](CC(C)C)[C@@H](O)CC(=O)O)C(C)C)C(C)C [pepstatin A] (Isovaleryl-VV[Sta]A[Sta]-OH) |  | not abolished
O=S(=O)(F)Cc1ccccc1 [phenylmethylsulfonyl fluoride] |  | not abolished
